# Measured values reported in a melting point compilation (Tetko et al.; mined from patent text by program, amines drawn as free bases though some values may be those of a salt).
row,Compound,melting point [°C]
1,CCc1nc2c(-c3ccc(OC(F)(F)F)cc3Cl)ncnc2n1C(C1CC1)C1CC1,119 to 120
2,Cc1nc[nH]c1C(=O)OC(C)C,188 to 190
3,CCC(O)C1CCNCC1 (centres undefined),50
4,COC(=O)CCCCCCCCCCCCCCC=O,41.5
5,CNC(=S)NCCCSc1nc(C)co1,73 to 74
6,CC(C)(C)OC(=O)n1ccc2cnccc21,65
7,Clc1ccccc1C1=NOC(c2ccccc2Cl)N1 (centres undefined),75 to 78
8,Cc1sc(Br)c(C)c1C(=O)O,183 to 184
9,CCCCN(CCCC)c1ccc(C=CC=CC2=C(C#N)C(=C(C#N)C#N)OC2(C)C(F)(F)F)c(OC)c1 (centres undefined),169 to 170
10,Nc1nc(N)nc(-c2ccc3c(c2)OCCO3)n1,241 to 244
11,Oc1ccc(O)c2c1CC(O)C(O)C2 (centres undefined),221 to 224
12,Cc1nc(O)c(C#N)c(C)c1Br,254 to 262
13,CCOc1cc(OC)c2cc(C(=O)CN=[N+]=[N-])ccc2n1,129 to 132
14,CCC1(O)CC(OC2CC(N(C)C)C(OC3CC(O)C(O)C(C)O3)C(C)O2)c2c(cc3c(c2O)C(=O)c2c(O)ccc(O)c2C3=O)C1C(=O)OC (centres undefined),162 to 163
15,[N-]=[N+]=NC1(O)CC(n2cc(I)c(=O)[nH]c2=O)OC1CO (centres undefined),126 to 130
16,CC(=O)Nc1cnc(C2OCCO2)cc1C,98 to 99
17,CNc1cc(C)nc2c(S(=O)(=O)c3ccccc3)c(SC)nn12,> 230
18,N#Cc1cc(-c2c3ccccc3cc3sc4ccccc4c23)cc(C#N)c1O,274 to 276
19,O=c1ccc(-c2ccncn2)c[nH]1,> 250
20,COc1cc(-c2cc(O)n(C)n2)cc([N+](=O)[O-])c1OC,200 to 202
21,N#Cc1cc(C(O)CNC2CCCC2)ccc1N (centres undefined),158 to 160

row,Compound,melting point [°C]
1,N#Cc1cnc(-c2ccccc2OCC2CC2)[nH]c1=O,188 to 190
2,Nc1cc(CC(=O)O)cc(C(=O)O)c1,214 to 220
3,CSC(=NC(C)=O)Nc1ccccc1[N+](=O)[O-],120 to 122
4,N#Cc1cc2ccc(Cl)cc2[nH]c1=O,306 to 309
5,Cc1cn(C2CC(OP(N)O)C(CO[Si](C)(C)C(C)(C)C)O2)c(=O)[nH]c1=O (centres undefined),68 to 70
6,O=P(O)(O)C(c1cccc(C(F)(F)F)c1)c1cccc(C(F)(F)F)c1,191 to 193
7,CC1(C)CC(=O)Nc2cc3nc(O)[nH]c3cc21,> 300
8,CCn1cc(C(=O)OC)c(=O)c2cc(F)c(N3CCNCC3)cc21,179 to 181
9,CCOC(=O)c1ccccc1Sc1ccn(C(=O)N(CC)CC)n1,65 to 67
10,CC1(C)Oc2ccncc2[C@@H](Oc2ccccn2)[C@@H]1O (relative stereo),207
11,CC(C)(C)C(O)C(NC(=O)c1ccccc1)n1ccnc1 (centres undefined),143
12,Cc1noc(NS(=O)(=O)c2ccccc2)c1Cl,140 to 143
13,Cc1cc(C)nc(-n2cnc(S(=O)(=O)Nc3c(Cl)cccc3Cl)n2)n1,274 to 275
14,CC(=O)Oc1cc(OC(C)=O)c2ccccc2c1OC(C)=O,136 to 137
15,Clc1cc(Cl)c2c(c1)COCO2,111 to 112
16,Cc1nc(N)c2nc(CONC(C)C)n(CCCCNC(=O)C(C)C)c2c1C,156 to 157
17,NC1C(=O)N(CCCO)c2ccccc2N(c2ccccc2)C1=O (centres undefined),55 to 58
18,CC(C)=CCOC(C)C1CCC2=C3C=CC4C(C)(C)C(O)CCC4(C)C3CCC21C (centres undefined),171 to 174
19,CC(C)c1cccc(C(C)C)c1N1C(=O)C(c2ccccc2)=C(c2ccccc2)C1=O,233 to 234
20,O=C(C1CCCCC1CO)N1CCCC1 (centres undefined),115
21,Cn1nnnc1-c1cccc(CCl)c1,63 to 65

# The next lines start with the values.
row,melting point [°C],Compound
1,148 to 150,CN1CCC(c2c[nH]c3ccc(NS(=O)(=O)c4ccccc4)nc23)CC1
2,242 to 243,O=C(O)CCC1(NC(=O)c2ccc(Cl)c(Cl)c2)C(=O)N(CCCc2ccccc2)c2ccccc21 (centres undefined)
3,254 to 256,NS(=O)(=O)c1ccc(-n2nc(C(F)(F)F)cc2-c2nc3ccccc3s2)cc1
4,95 to 96,CCOC(=O)c1c(C)nc(-c2ccccc2)nc1-c1ccncc1
5,130 to 132,CSC(=N)NC(c1ccccc1)c1ccc(C)cc1 (centres undefined)
6,94 to 95,CC(=O)NCc1ccc(CN2CCN(c3ccc(F)cc3F)CC2)cc1
7,307 to 308,Oc1ccc(-c2cnc3cnc(-c4ccc(O)cc4)nc3c2)cc1
8,108 to 109,CCOC(=O)c1ccc(-c2nc(COc3ccc(CO)cc3OC)c(C)o2)s1
9,47 to 48,C=C1N(CCCCCCC)C(=O)OC12CCN(Cc1ccccc1)CC2
10,213,CC1(C)CCC(C)(C)c2cc(CCCO)c(/C=C/c3ccc(C(=O)O)cc3)cc21
11,153 to 155,COc1cc(OCc2ccccn2)ccc1/C=C/c1cc(/C=C/c2ccc3c(c2)OCCO3)n[nH]1
12,133 to 136,CC(=Cc1ccc(Br)cc1)c1ccc2c(C)c(C)c(C)c(C)c2c1
13,161 to 164,O=C(c1ccccc1)c1c[nH]nc1-c1cccc(Cl)c1
14,230 to 232,O=C(O)CNCCn1nc(-c2c(-c3ccccc3)nn3ccccc23)ccc1=O
15,66 to 67,COc1c(OCc2ccccc2)ccc2cc[nH]c12
16,90 to 91,Cc1ccc(-c2nc(C)cc(Oc3ccccc3)n2)cc1
17,154 to 155,CCOCC1(C)CCCSc2cc(C#Cc3ccc(C(=O)O)cc3)ccc21 (centres undefined)
18,166 to 168,COc1cccc(CNC(=O)COc2ccn3nc(-c4ccccc4)c(-c4ccc(=O)n(C(C)C)n4)c3c2)c1
19,256 to 257,Cc1ccc(S(=O)(=O)n2c(-c3cn(C)c4ccc(O)cc34)cc3cccnc32)cc1
20,207 to 208,CC(C)n1nc(-c2sc(NC(=O)c3cc(C(F)(F)F)cc(C(F)(F)F)c3)nc2-c2ccccc2)ccc1=O
21,58 to 60,Cc1ccc2c(c1C)OC(=O)C2c1ccc(C(C)C)cc1 (centres undefined)

row,melting point [°C],Compound
1,98 to 98.5,Cc1ccc2ccccc2c1Cn1ccnc1
2,195,CCN1CC(N(CCN2CCCC2)S(=O)(=O)c2ccc(Nc3nccc(Nc4ccc(F)c(C)c4)n3)cc2)C1
3,182 to 186,Cc1c(CCNC(=O)OC(C)(C)C)c2cc(S(=O)(=O)c3cc(F)cc(F)c3)ccc2n1C
4,45 to 48,CCN(CC)C(=O)c1ccoc1-c1ccc(C(F)(F)F)cc1
5,102 to 105,NC(=O)c1cccc2c1CC(N(CCCc1c[nH]c3ccc(F)cc13)C1CCC1)CO2 (centres undefined)
6,151 to 152,CCOc1cc(OCc2cn(-c3ccc(C(F)(F)F)cn3)nc2C)ccc1CCC(=O)O
7,157,CN1[C@@H](c2cccc(Br)c2)c2ccccc2S1(=O)=O
8,209 to 210,O=C(O)c1ccc(OCC2CCCCC2)cc1
9,211 to 213,CCCCc1nc2ncncc2n1Cc1ccc2oc(-c3ccccc3-c3nnn[nH]3)c(Br)c2c1
10,156,CCCOc1ccc(/C=C/c2nc3c(c(=O)n(CC)c(=O)n3CC)n2C)cc1
11,194 to 196,COc1ccc(CC2CCC3NC(=O)CCC3C2)cc1 (centres undefined)
12,93 to 100,COC1C(C)OC(ON(C)Cc2ccc(-c3ncn(-c4ccc(OC(F)(F)F)cc4)n3)cc2)C(OC)C1OC (centres undefined)
13,55 to 56,COCc1c(OCc2ccccc2)ccc2c1CCCC2=O
14,177 to 183,O=C(O)CN1C(=O)COc2cc(F)c([N+](=O)[O-])cc21
15,126 to 127,CC(=O)OCCc1sc2nc(=NS(=O)(=O)c3ccc(C)cc3)sn2c1-c1ccc2c(c1)CCCC2
16,103 to 108,COc1ccc(C)cc1NC(=O)Nc1ccc(C2=CCN(C(=O)Nc3ncccc3CO)CC2)cc1
17,80 to 82,C[N+](C)([O-])c1ccc(/C=C/c2c(Cl)cccc2Cl)cc1
18,195 to 198,O=S1(=O)Cc2ccc(Cl)cc2C(c2ccc(F)cc2)=NN1
19,146 to 147,COC(=O)CNc1cccc(C(N)=O)c1
20,248 to 255,O=C(NC(Cc1ccccc1)C(=O)O)c1cc2cc(Cl)ccc2[nH]1 (centres undefined)
21,255 to 256,O=C(O)c1cn(C2COC2)c2cc(F)c(F)cc2c1=O

row,melting point [°C],Compound
1,42.5 to 44,CCOC(=O)c1ccc(CBr)c(F)c1
2,175 to 176,O=c1nc(-c2ccccc2)c2cc([N+](=O)[O-])ccc2n1Cc1ccccn1
3,179 to 181,CNC(=O)[C@H]1CN(c2cc(F)c(N3CCOCC3)c(F)c2)C(=O)O1
4,260,O=C(O)c1cccc(-c2nc(=O)c3ccccc3s2)n1
5,165 to 166,CCCOc1ccccc1-c1nc(O)cc(C(=O)NC)n1
6,90,BrCC1(c2ccc3c(c2)Cc2ccccc2-3)OCCO1
7,172 to 173,COc1ccc(S(=O)(=O)Nc2cccnc2Nc2ccccc2)cc1
8,96 to 97,Cc1ccccc1Sc1cccc(CC(=O)O)c1O
9,114 to 116,CCC(C(c1ccc(OC)cc1)c1ccc(C(C)(C)C)cc1)[N+](=O)[O-] (centres undefined)
10,69 to 77,COc1cc(N2CCCN(C)CC2)ccc1Nc1ncc2ccc(-c3ccccc3OC)n2n1
11,154 to 155,CCCCOCCOc1ccc(-c2ccc(N3CCC(C)CC3)c(C=C(C)C(=O)O)c2)cc1
12,162 to 165,CN1CCCCC1=C1C(=O)N(c2cccc(Cl)c2)c2ccccc21
13,182 to 183,O=C1NC(=O)C(=Cc2ccc(OCc3cccc(Cl)c3)cc2)S1
14,188,Cc1cn(-c2cccc(C3=Nc4ccc(-c5ccc(F)cc5)cc4NC(=O)C3)c2)c(C)n1
15,138 to 139,C#CCOc1cc(-c2ccc(S(C)(=O)=O)cc2)c(-c2ccc(F)cc2)c(C(F)(F)F)n1
16,189 to 191,CC1(C)CC(c2ccc3ccccc3c2)c2ccc(O)cc2O1 (centres undefined)
17,196,NC(=O)C(Nc1ccccc1C1CC1)c1c(Cl)cccc1Cl (centres undefined)
18,61,CCC(=O)c1ccc(OCCCCCCCc2cc(C)no2)cc1
19,160 to 162,COc1ccc(C(=O)c2ccc(NC(C)=O)cc2)cc1
20,110 to 112,CCC(=O)NCCc1c[nH]c2ccc(OCc3ccccc3)cc12
